Assay results reported in US20100137344A1, “INDUCTION OF ANALGESIA IN NEUROPATHIC PAIN” (University Court of the University of Edinburgh, priority 2006, published 2010).

What was measured:
[1] = system: rats with lysolecithin-induced demyelination of sciatic nerve; assay: Intrathecal icilin in lysolecithin demyelination-induced pain model (PWL, PWT); type: in vivo, rat; conditions: icilin 10 nmol, i.t.
Experimental: Pain models were generated under halothane anaesthesia (Zeneca, Cheshire, UK). For the chronic constriction injury (CCI) model of neuropathic pain, four ligatures were tied loosely to constrict the sciatic nerve at mid-thigh level (as described previously^[39]). An inflammatory pain model was generated by injecting 100 μl of Complete Freund's Adjuvant (CFA, Sigma-Aldrich Ltd) into the ventral surface of the right hindpaw^[39]. A model of peripheral demyelination-induced pain was produced by focal application of lysolecithin to the sciatic nerve^[40]. Peak behavioural sensitisation was observed post-surgically between days 10-16 for CCI, 1-3 for CFA, and 7-14 for lysolecithin, when pharmacological and electrophysiological experiments and tissue removal were conducted.
Thermal sensitivity was assessed by measuring paw withdrawal latency (PWL, s) in response to a noxious thermal stimulus (Hargreaves' thermal stimulator, Linton Instrumentation, Diss, UK) directed to the hindpaw mid-plantar glabrous surface. Mechanical sensitivity was recorded as the paw withdrawal threshold (PWT, mN/mm^2) to calibrated von Frey filaments (Stoelting, Ill., US), as previously described^[39]. Sensitivity to noxious cold was assessed by placing animals in a waterbath with an aluminium floor containing 1 cm deep 4° C. water and counting the time the paw was held suspended over a 20 s period.
The following drugs were applied intrathecally in a 50 μl volume of saline-based vehicle at 37° C.: icilin (2.5-200 μM in saline with 0.2% dimethylformamide, DMF), LY 341495 (100 μM in saline), UBP 1112 (200 μM in saline), 2R,4R-APDC ((2R, 4R)-4-aminopyrrolidine-2,4-dicarboxylate), 300 μM in saline), ACPT-III ((1R,3R,4S)-1-aminocyclopentane-1,3,4-tricarboxylic acid), 3 mM in saline), AP-4, ((L-(1)-2-amino-4-phosphonobutyric acid), 3 mM in saline), naloxone (0.5 mM in saline), NMDA (75 μM in saline) and ACPC (1-aminocyclopropanecarboxylic acid, 15 μM in saline) (Tocris Cookson, Bristol, UK), (−)-menthol (1R,2S,5R-(−)-menthol, 4 mM in saline), cinnamaldehyde (1.5 mM in saline) and Ruthenium Red (5 μM in saline) (Sigma-Aldrich Co. Ltd, UK) and allicin (0.5 mM in saline with 0.5% DMF) and diallyl disulphide (DADS, 1 mM in saline with 0.5% DMF) (LKT Laboratories Inc., St Paul, Minn., USA). […] Behavioural reflex testing commenced 15 min following injection to allow recovery from anaesthesia^[40,41,42] and continued every 5 min thereafter until readings returned to baseline levels (n=6 in each case). […]
The TRPM8 channel activators, icilin and (−)-menthol were tested in CCI and naïve animals. The effects of icilin were additionally assessed in animals with CFA-induced inflammation or with lysolecithin-induced demyelination. […]

dorsal horn neurons = assay: Extracellular recordings of single spinal dorsal horn neurons in CCI animals (brush-evoked firing); type: in vivo, rat; conditions: icilin 200 μM topical
Experimental: Peripheral: Recordings of saphenous (sensory) nerve were made in naïve animals (n=7) to assess the effects of topical icilin on primary afferents. In addition, recordings were carried out on animals which had undergone TRPM8 antisense or mis-sense treatment beginning 4-5 days previously. Rats were anaesthetised (with 0.6 ml 25% urethane/100 g, i.p.) and the saphenous nerve was exposed and dissected from its associated vein and artery. Further dissection under liquid paraffin enabled identification of afferent preparations comprising a small number of fibres. The conduction velocity of single identified afferent fibres was determined using bipolar electrodes and the peripheral stimulus technique^[43]. Following isolation of preparations, icilin (200 μM in water with 0.2% DMF), (−)-menthol (4 mM in 25% ethanol) resiniferatoxin (1 mM in ethanol) or vehicle alone were applied to the hindlimb receptive fields and neuronal responses recorded using the Chart programme (version 3.6). Central: Recordings of spinal dorsal horn neurons were made in CCI animals, as described previously^[39]. Following halothane induction, the jugular vein and trachea were canulated and intravenous anaesthetic delivered: α-chloralose ([…], Fisher) and urethane ([…], Sigma), with small supplementary doses of α-chloralose as required throughout the experiment. Core body temperature was maintained at 37-38° C. by means of a thermostatically controlled heated blanket. The animal was placed in a stereotaxic frame, and the thoracolumbar spinal column was supported using three pairs of swan-necked clamps. A laminectomy was performed at L2-L5, and agar (2% in saline at 37° C.) was delivered over exposed cord to increase mechanical stability. Above the recording region the agar and spinal cord dura were removed and liquid paraffin poured into the pool. Extracellular recordings were made from single multireceptive neurons in laminae I-IV through the centre barrel of a seven-barrelled glass microelectrode filled with 4M NaCl (tip-diameter […], DC resistance 5-8 MΩ). The receptive fields of hair-follicle innervated neurons on the distal hindlimb were identified by an innocuous brush stimulus^[39]. Icilin (200 μM in water with 0.2% DMF) was applied peripherally to the receptive field of individual recorded neurons, and the effect on neuronal response to a rotating brush was recorded and analysed using Spike2 programme (Version 3.2, CED). The Group III mGluR antagonist UBP 1112 (20 mM in water), pH 8.5, and control 1M NaCl, pH 8.5 were ionophoresed from the side barrels of the electrode using currents of between 20 nA and 80 nA (Neurophore BH2 ionophoresis system, Medical Systems, Great Neck, N.Y.) to measure effects on neuronal response to icilin.

O=C1NC(c2cccc([N+](=O)[O-])c2)=CCN1c1ccccc1O [icilin, 1-(2′-hydroxyphenyl)-4-(3″-nitrophenyl)-1,2,3,6-tetrahydropyrimidin-2-one]
Mean % reversal of mechanical sensitisation (after 15-30 mins) [1]: 63.3 ± 6.4% | Mean % reversal of thermal sensitisation (after 15-30 mins) [1]: 69.2 ± 5.1% | PWL (s) difference from control (+ icilin) [1]: 2.4 ± 1.2 s | PWT (mN/mm^2) difference from control (+ icilin) [1]: 1102.5 ± 422.5 mN/mm^2 | brush-induced responses of contralateral neurons (dorsal horn neurons; contralateral, n=6): 111.9±8.9 % of control | brush-induced responses (dorsal horn neurons; ipsilateral to CCI, 8 neurons out of 12 affected): 37.4±5.5%
